From US10420772B2, “Animal and human anti-trypanosomonal and anti-leishmania agents” (Celgene Corporation, priority 2016, dated 2019)
Where two headings read alike, the source gives them in different places.

Legend:
Format in all cases: cell-based
[1] = tested on: STIB 719/ILRAD 560 T. vivax (drug sensitive) strain; assay: Ex vivo Alamar Blue 48 hrs drug sensitivity assay for T. vivax; conditions: Trypanosoma vivax, read-out: T. vivax Act.
Protocol: Ex vivo Alamar Blue48 hrs drug sensitivity assay for T. vivax. Compounds were tested ex vivo for chemotherapeutic efficacy against the STIB 719/ILRAD 560 T. vivax (drug sensitive) strain, using an Alamar Blue assay. Test compounds were prepared as 10 mg/mL DMSO stocks for each assay run. Compounds were assayed in at least three separate, independent test runs and an 11-point dilution curve was used to determine the IC50 values. Bloodstream form trypanosomes were propagated and harvested from a highly parasitaemic mouse (via cardiac puncture) and were incubated with test compounds for 45 hrs at 37° C. in a humidified atmosphere containing 5% CO2, supported in HMI media containing 20% bovine serum. Thereafter, 10 μL of Resazurin dye (12.5 mg in 100 mL of phosphate buffered saline, Sigma-Aldrich, Buchs, Switzerland) were added for an additional 3 hrs. Plates were then read using a fluorescent plate reader (Spectramax, Gemini XS, Bucher Biotec, Basel, Switzerland) using an excitation wavelength of 536 nm and an emission wavelength of 588 nm. Data points were averaged to generate sigmoidal dose-response curves and IC50 values were determined using Softmax Pro 5.2 software.

[2] = tested on: STIB 806 K T. evansi (drug sensitive) strain; assay: In vitro Alamar Blue 72 hrs drug sensitivity assay for T. evansi; conditions: read-out: T. evansi Act.
Protocol: In vitro Alamar Blue 72 hrs drug sensitivity assay for T. evansi. Compounds were tested in vitro for chemotherapeutic efficacy against the STIB 806 K T. evansi (drug sensitive) strain, using an Alamar Blue assay. Test compounds were prepared as 10 mg/mL DMSO stocks for each assay run. Compounds were assayed in at least three separate, independent test runs and an 11-point dilution curve was used to determine the IC50 values. Bloodstream form trypanosomes were incubated with test compounds for 69 hrs at 37° C. in a humidified atmosphere containing 5% CO2, supported in HMI media containing 15% horse serum. Thereafter, 10 μL of Resazurin dye (12.5 mg in 100 mL of phosphate buffered saline, Sigma-Aldrich, Buchs, Switzerland) were added for an additional 3 hrs. Plates were then read using a fluorescent plate reader (Spectramax, Gemini XS, Bucher Biotec, Basel, Switzerland) using an excitation wavelength of 536 nm and an emission wavelength of 588 nm. Data points were averaged to generate sigmoidal dose-response curves and IC50 values were determined using Softmax Pro 5.2 software.

[3] = tested on: IL3000 T. congolense (drug sensitive) strain; assay: In vitro Alamar Blue 72 hrs drug sensitivity assay for T. congolense; conditions: Trypanosoma congolense, IL3000 T. congolense bloodstream form, read-out: T. congo Act.
Protocol: In Vitro Alamar Blue 72 Hrs Drug Sensitivity Assay for T. Congolense. Compounds were tested in vitro for chemotherapeutic efficacy against the IL3000 T. congolense (drug sensitive) strain using an Alamar Blue assay. Test compounds were prepared as 10 mg/mL DMSO stocks for each assay run. Compounds were assayed in at least three separate, independent test runs and an 11-point dilution curve was used to determine the IC50 values. Bloodstream form trypanosomes were supported in HMI media containing 20% bovine serum and were incubated with test compounds for 69 hrs at 34° C. in a humidified atmosphere containing 5% CO2. Thereafter, 10 μL of Resazurin dye (12.5 mg in 100 mL of phosphate buffered saline, Sigma-Aldrich, Buchs, Switzerland) were added for an additional 3 hrs. Plates were then read using a fluorescent plate reader (Spectramax, Gemini XS, Bucher Biotec, Basel, Switzerland) using an excitation wavelength of 536 nm and an emission wavelength of 588 nm. Data points were averaged to generate sigmoidal dose-response curves and IC50 values were determined using Softmax Pro 5.2 software.

[4] = STIB719, STIB 719/ILRAD 560 T. vivax bloodstream form, ex vivo, Alamar Blue, 48 hrs
[5] = STIB 806 K T. evansi bloodstream form, Alamar Blue, 72 hrs

| Compound | IC50 [1, 4] [nM] | IC50 [2, 5] [nM] | IC50 [3] [nM] | IC50 ([1]; STIB719, 48 h) [nM] | IC50 ([2]; 72 h) [nM] |
| --- | --- | --- | --- | --- | --- |
| CC1(Nc2ncc3nc(Nc4cccc(Cl)c4)n(C4CCC(CN)CC4)c3n2)CCOCC1 (stereo not shown) [A-1, 9-((1s,4s)-4-(aminomethyl)cyclohexyl)-N8-(3-chlorophenyl)-N2-(4-methyltetrahydro-2H-pyran-4-yl)-9H-purine-2,8-diamine] | < 150 | < 150 | < 150 | – | – |
| CC1(Nc2ncc3nc(Nc4cccc(Cl)c4)n(C4CCC(CN)CC4)c3n2)CCCC1 (stereo not shown) [A-4, 9-((1s,4s)-4-(aminomethyl)cyclohexyl)-N8-(3-chlorophenyl)-N2-(1-methylcyclopentyl)-9H-purine-2,8-diamine] | – | – | < 150 | < 150 | < 150 |
| CN(C)C[C@H]1CC[C@@H](n2c(Nc3cccc(Cl)c3)nc3cnc(NC4(C)CCOCC4)nc32)CC1 [A-5, N8-(3-chlorophenyl)-9-((1s,4s)-4-((dimethylamino)methyl)cyclohexyl)-N2-(4-methyltetrahydro-2H-pyran-4-yl)-9H-purine-2,8-diamine] | < 150 | < 150 | < 150 | – | – |
| CC1(Nc2ncc3nc(Nc4cccc(Cl)c4)n([C@H]4CC[C@H](CN)CC4)c3n2)CCOCC1 [A-7, 9-((1r,4r)-4-(aminomethyl)cyclohexyl)-N8-(3-chlorophenyl)-N2-(4-methyltetrahydro-2H-pyran-4-yl)-9H-purine-2,8-diamine] | < 150 | < 150 | < 150 | – | – |
| CC(=O)NC[C@H]1CC[C@@H](n2c(Nc3cccc(Cl)c3)nc3cnc(NC4(C)CCOCC4)nc32)CC1 [A-11, N-(((1s,4s)-4-(8-(3-chlorophenylamino)-2-(4-methyltetrahydro-2H-pyran-4-ylamino)-9H-purin-9-yl)cyclohexyl)methyl)acetamide] | < 150 | 350 to 500 | 350 to 500 | – | – |
| CCC(C)(C)Nc1ncc2nc(Nc3cccc(C(F)(F)F)c3)n([C@H]3CC[C@@H](CN)CC3)c2n1 [A-13, 9-((1s,4s)-4-(aminomethyl)cyclohexyl)-N2-tert-pentyl-N8-(3-(trifluoromethyl)phenyl)-9H-purine-2,8-diamine] | < 150 | < 150 | < 150 | – | – |
| CC1(Nc2ncc3nc(Nc4cccc(C(F)(F)F)c4)n([C@H]4CC[C@@H](CN)CC4)c3n2)CCOCC1 [A-28, 9-((1s,4s)-4-(aminomethyl)cyclohexyl)-N2-(4-methyltetrahydro-2H-pyran-4-yl)-N8-(3-(trifluoromethyl)phenyl)-9H-purine-2,8-diamine] | < 150 | < 150 | < 150 | – | – |
| CC1(Nc2ncc3nc(Nc4ccnc(C(F)(F)F)c4)n([C@H]4CC[C@@H](CN)CC4)c3n2)CCOCC1 [A-34, 9-((1s,4s)-4-(aminomethyl)cyclohexyl)-N2-(4-methyltetrahydro-2H-pyran-4-yl)-N8-(2-(trifluoromethyl)pyridin-4-yl)-9H-purine-2,8-diamine] | < 150 | < 150 | < 150 | – | – |
| CC1(Nc2ncc3nc(Nc4cc(Cl)cc(C(F)(F)F)c4)n([C@H]4CC[C@@H](CN)CC4)c3n2)CCOCC1 [A-36, 9-((1s,4s)-4-(aminomethyl)cyclohexyl)-N8-(3-chloro-5-(trifluoromethyl)phenyl)-N2-(4-methyltetrahydro-2H-pyran-4-yl)-9H-purine-2,8-diamine] | < 150 | 150 to 350 | < 150 | – | – |
| CC1(Nc2ncc3nc(Nc4cccc(OC(F)(F)F)c4)n([C@H]4CC[C@@H](CN)CC4)c3n2)CCOCC1 [A-37, 9-((1s,4s)-4-(aminomethyl)cyclohexyl)-N2-(4-methyltetrahydro-2H-pyran-4-yl)-N8-(3-(trifluoromethoxy)phenyl)-9H-purine-2,8-diamine] | < 150 | < 150 | < 150 | – | – |
| CC1(Nc2ncc3nc(Nc4ccc(OC(F)(F)F)cc4)n([C@H]4CC[C@@H](CN)CC4)c3n2)CCOCC1 [A-38, 9-((1s,4s)-4-(aminomethyl)cyclohexyl)-N2-(4-methyltetrahydro-2H-pyran-4-yl)-N8-(4-(trifluoromethoxy)phenyl)-9H-purine-2,8-diamine] | < 150 | 150 to 350 | < 150 | – | – |
| CC1(Nc2ncc3nc(Nc4cc(Cl)ccc4F)n([C@H]4CC[C@@H](CN)CC4)c3n2)CCOCC1 [A-50, 9-((1s,4s)-4-(aminomethyl)cyclohexyl)-N8-(5-chloro-2-fluorophenyl)-N2-(4-methyltetrahydro-2H-pyran-4-yl)-9H-purine-2,8-diamine] | – | < 150 | < 150 | – | – |
| CN(C)C[C@H]1CC[C@@H](n2c(Nc3cccc(C(F)(F)F)c3)nc3cnc(NC4(C)CCOCC4)nc32)CC1 [A-56, 9-((1s,4s)-4-((dimethylamino)methyl)cyclohexyl)-N2-(4-methyltetrahydro-2H-pyran-4-yl)-N8-(3-(trifluoromethyl)phenyl)-9H-purine-2,8-diamine] | – | < 150 | < 150 | – | – |
| CC1(C)CC(Nc2ncc3nc(Nc4cccc(Cl)c4)n([C@H]4CC[C@@H](CN)CC4)c3n2)CCO1 (stereo partly shown) [B-8, 9-((1s,4s)-4-(aminomethyl)cyclohexyl)-N8-(3-chlorophenyl)-N2-(2,2-dimethyltetrahydro-2H-pyran-4-yl)-9H-purine-2,8-diamine] | < 150 | – | 150 to 350 | – | – |
| CNc1ncc2nc(Nc3cccc(Cl)c3)n(C3CCC(CN)CC3)c2n1 (stereo not shown) [B-9, 9-((1s,4s)-4-(aminomethyl)cyclohexyl)-N8-(3-chlorophenyl)-N2-methyl-9H-purine-2,8-diamine] | < 150 | – | 350 to 500 | – | – |
| NCC1CCC(n2c(Nc3cccc(Cl)c3)nc3cnc(NCC(F)(F)F)nc32)CC1 (stereo not shown) [B-10, 9-((1s,4s)-4-(aminomethyl)cyclohexyl)-N8-(3-chlorophenyl)-N2-(2,2,2-trifluoroethyl)-9H-purine-2,8-diamine] | < 150 | – | 350 to 500 | – | – |
| CC1(O)CCC(Nc2ncc3nc(Nc4cccc(Cl)c4)n(C4CCC(CN)CC4)c3n2)CC1 (stereo not shown) [B-11, 4-(9-((1s,4s)-4-(aminomethyl)cyclohexyl)-8-(3-chlorophenylamino)-9H-purin-2-ylamino)-1-methylcyclohexanol] | < 150 | – | 350 to 500 | – | – |
| NCC1CCC(n2c(Nc3cc(Cl)cc(C(F)(F)F)c3)nc3cnc(NC4CCOCC4)nc32)CC1 (stereo not shown) [B-12, 9-((1s,4s)-4-(aminomethyl)cyclohexyl)-N8-(3-chloro-5-(trifluoromethyl)phenyl)-N2-(tetrahydro-2H-pyran-4-yl)-9H-purine-2,8-diamine] | 350 to 500 | – | 350 to 500 | – | – |
| CN(C)c1ncc2nc(Nc3cc(C(F)(F)F)ccc3F)n(C3CCC(CN)CC3)c2n1 (stereo not shown) [B-14, 9-((1s,4s)-4-(aminomethyl)cyclohexyl)-N8-(2-fluoro-5-(trifluoromethyl)phenyl)-N2,N2-dimethyl-9H-purine-2,8-diamine] | < 150 | – | 350 to 500 | – | – |
| NCC1CCC(n2c(Nc3cc(C(F)(F)F)ccc3F)nc3cnc(N4CCCC4)nc32)CC1 (stereo not shown) [B-15, 9-((1s,4s)-4-(aminomethyl)cyclohexyl)-N-(2-fluoro-5-(trifluoromethyl)phenyl)-2-(pyrrolidin-1-yl)-9H-purin-8-amine] | < 150 | – | 150 to 350 | – | – |
| NCC1CCC(n2c(Nc3cc(C(F)(F)F)ccc3F)nc3cnc(NC4CCOCC4)nc32)CC1 (stereo not shown) [B-16, 9-((1s,4s)-4-(aminomethyl)cyclohexyl)-N8-(2-fluoro-5-(trifluoromethyl)phenyl)-N2-(tetrahydro-2H-pyran-4-yl)-9H-purine-2,8-diamine] | < 150 | – | 350 to 500 | – | – |
| NCC1CCC(n2c(Nc3cc(Cl)ccc3F)nc3cnc(NC4CCOCC4)nc32)CC1 (stereo not shown) [B-17, 9-((1s,4s)-4-(aminomethyl)cyclohexyl)-N8-(5-chloro-2-fluorophenyl)-N2-(tetrahydro-2H-pyran-4-yl)-9H-purine-2,8-diamine] | < 150 | – | < 150 | – | – |
